This test concerns T cells isolated from mouse spleen. In words: T cell proliferation inhibition, CFSE flow cytometry, CD3/CD28 activation. Format: cell-based. The note with it: CD3/CD28 activated, 3 days. How it is done:
To verify the T cell proliferation inhibitory effect of the compounds according to the present invention, the following experiment was performed based on flow cytometry analysis using carboxyfluorescein diacetate succinimidyl ester (CFSE), a fluorescent dye that binds to intracellular molecules via covalent bonds.
Spleens were extracted from 7-week-old C57BL/6 mice, ground, and then separated into single cells using a strainer (40 μm pore size, SPL). Red blood cells were removed using ACK (Ammonium-Chloride-Potassium) lysis buffer to isolate white blood cells.
Finally, using a MACS Magnetic Stand and LS column, T cells were isolated from the spleen.
The T cells isolated from the spleen were resuspended in 1 mL of free medium (RPMI-1640+200 U/mL penicillin+200 μg/mL streptomycin), and 0.3 μL of CFSE (10 mM) was added. The mixture was incubated at 37° C. for 5 minutes.
Free medium (10 mL) was added to stop the reaction, and the cells were centrifuged to obtain the cell pellet.
RPMI 1640 medium containing 10% FBS, 100 U/mL penicillin, 100 μg/mL streptomycin, and resuspended the cells. The cells were then seeded into a 96-well plate at a density of 2×10^5 cells per well and activated with CD3 and CD28 antibodies (0.5 μg/mL each) to activate T cells.
The compound diluted in DMSO was added at concentrations of 10 nM, 100 nM, 1 μM, 10 μM, 30 μM, and 50 μM, with three wells per concentration, and cultured at 37° C. and 5% CO2 for three days. The cells were then analyzed using a FACS Canto instrument.
The proliferation inhibition rate (%) was calculated using the following formula: […]
(In general: Flow cytometry measures light scatter and fluorescence of single cells or particles in a stream.)

With `Nc1ncccc1C(=O)NCCCCCCCCCCCCN1CCC2CCCCC2C1` (centres unmarked) [Compound 16, 2-Amino-N-(12-(octahydroisoquinolin-2 (1H)-yl)dodecyl)nicotinamide], the inhibition at 0.01 µM (Mus musculus, T-cell, 72 h, compound 10 nM, read-out: Proliferation inhibition rate (%)) turned out to be 4.13%. Besides, the inhibition at 0.1 µM (Mus musculus, T-cell, 72 h, compound 100 nM, read-out: Proliferation inhibition rate (%)) is -2.93%. The inhibition at 1 µM (Mus musculus, T-cell, 72 h, compound 1 μM, read-out: Proliferation inhibition rate (%)) is 100%. Further, the inhibition at 10 µM (Mus musculus, T-cell, 72 h, compound 10 μM, read-out: Proliferation inhibition rate (%)) is 100%. Further, where the note is “Mus musculus, T-cell, 72 h, compound 30 μM, read-out: Proliferation inhibition rate (%)”, the inhibition at 30 µM was 100%. Moreover, the inhibition at 50 µM (Mus musculus, T-cell, 72 h, compound 50 μM, read-out: Proliferation inhibition rate (%)) worked out at 100%.

Consider `Nc1ncccc1C(=O)NCCCCCCCCCCCCN1CCc2ccccc2C1` [Compound 17, 2-Amino-N-(12-(3,4-dihydroisoquinolin-2(1H)-yl)dodecyl) nicotinamide], for which the “Proliferation inhibition rate (%)” value by setting is: (compound 10 nM, listed as PBK-2024-004, 0.01 µM) 0.00%; (compound 100 nM, listed as PBK-2024-004, 0.1 µM) −14.00%; (compound 1 μM, listed as PBK-2024-004, 1 µM) 100.00%; (compound 10 μM, listed as PBK-2024-004, 10 µM) 100.00%.

For `CC1(C)CCN(CCCCCCCCCCCCNC(=O)c2cccnc2N)C1` [Compound 22, 2-Amino-N-(12-(3,3-dimethylpyrrolidin-1-yl)dodecyl) nicotinamide], the “Proliferation inhibition rate (%)” value reads like this: (compound 10 nM) −0.80%; (compound 100 nM) 100.00%; (compound 1 μM) 100.00%; (compound 10 μM) 100.00%; (compound 30 μM) 100.00%; (compound 50 μM) 100.00%.

Turning to `COC1CCN(CCCCCCCCCCCCNC(=O)c2cccnc2N)C1` (centres unmarked) [Compound 32, 2-Amino-N-(12-(3-methoxypyrrolidin-1-yl)dodecyl) nicotinamide], where the note is “compound 10 nM, listed as PBK-2024-024, 0.01 µM”, the “Proliferation inhibition rate (%)” value is listed as 0.29%.

As for `CN(CCCCCCCCCCCCNC(=O)c1cccnc1N)C1CCCCC1` [Compound 34, 2-Amino-N-(12-(cyclohexyl(methyl)amino)dodecyl) nicotinamide], the “Proliferation inhibition rate (%)” value (compound 100 nM) is 100.00%; the “Proliferation inhibition rate (%)” value (compound 1 μM) is 100.00%; the “Proliferation inhibition rate (%)” value (compound 10 μM) was 100.00%; the “Proliferation inhibition rate (%)” value (compound 30 μM) amounted to 100.00%; the “Proliferation inhibition rate (%)” value (compound 50 μM) is 100.00%.

In the case of `CC1CN(CCCCCCCCCCCCNC(=O)c2cccnc2N)C(C)CN1.Cl` (centres unmarked) [Compound 36, 2-Amino-N-(12-(2,5-dimethylpiperazin-1-yl)dodecyl) nicotinamide hydrochloride], the “Proliferation inhibition rate (%)” value was determined as 100.00% (compound 100 nM); 100.00% (compound 1 μM); 100.00% (compound 10 μM); 100.00% (compound 30 μM); 100.00% (compound 50 μM).

For `C[C@H]1CNCCN1CCCCCCCCCCCCNC(=O)c1cccnc1N.Cl` [Compound 37, (S)-2-Amino-N-(12-(2-methylpiperazin-1-yl)dodecyl) nicotinamide hydrochloride], the “Proliferation inhibition rate (%)” value (compound 1 μM) came out at 100.00%, the “Proliferation inhibition rate (%)” value (compound 10 μM) was determined as 100.00%, the “Proliferation inhibition rate (%)” value (compound 30 μM) was determined as 100.00% and the “Proliferation inhibition rate (%)” value (compound 50 μM) is 100.00%.

Consider `CC1CCCN(CCCCCCCCCCCCNC(=O)c2cccnc2N)CC1` (centres unmarked) [Compound 39, 2-Amino-N-(12-(4-methylazepan-1-yl)dodecyl) nicotinamide], for which the “Proliferation inhibition rate (%)” value by setting is: (compound 100 nM) 100.00%; (compound 1 μM) 100.00%; (compound 10 μM) 100.00%; (compound 30 μM) 100.00%; (compound 50 μM) 100.00%.

With `CC1CN(C)C(CCCCCCCCCCCCNc2ccc3cncnc3n2)N1` (centres unmarked) [Compound 43], the “Proliferation inhibition rate (%)” value is, setting by setting: (compound 100 nM) 100.00%; (compound 1 μM) 100.00%; (compound 10 μM) 100.00%; (compound 30 μM) 100.00%; (compound 50 μM) 100.00%.

The values are drawn from US20260184700A1, “PDK1 REGULATORY COMPOUND AND COMPOSITION CONTAINING THE SAME” (PROVIBIO CO., LTD., priority 2024, published 2026).
